Experiment [1] concerns IMP-1 producing Pseudomonas aeruginosa strain PAO1/pMS363. Type of experiment: cell-based. Conditions: no inhibitor, in µg/mL. From the text: IMP-1 producing Pseudomonas aeruginosa strain PAO1/pMS363 (FEMS Microbiology Letters 1994, 121, 175) was used for evaluating the inhibitory effect of maleic acid derivatives on the resistance against carbapenem by the metallo-β-lactamase in bacteria.

The target of experiment [2] is T1, IMP-1 (Serratia marcescens, UniProt P52699).
T1 construct: The total length of IMP-1 as a metallo-β-lactamase was amplified by PCR; His tag (C); made in house; host or cells: E. coli DH5α, pTrcHis2 TOPO vector, periplasmic fraction
As to the kind of experiment: biochemical. Conditions: nitrocefin 100 μM, IMP-1 1 nM, ZnSO4 100 μM, 50 mM HEPES pH 7.5, room temperature 20 min; read-out: IC50 of each inhibitor against IMP-1. As to the method: (§1) The PCR product was integrated into pTrcHis2 TOPO vector (Invitrogen), and then introduced into E. coli DH5α (TOYOBO) for culture under the induction of 0.5 mM Isopropyl-β-D-(−)-thiogalactopyranoside (Wako) at 37° C. for 3 h to express IMP-1. After recovering the bacterial cells, the periplasmic fraction was extracted by ocmotic shock with sucrose to refine the IMP-1 by Ni-NTA Slurry (QIAGEN) with the His tag at the C-terminus.
(§2) In order to determine the inhibitory activity of metallo-β-lactamase, a 50 mM HEPES (pH 7.5) buffer (referred to hereinafter as “buffer”) was used, and nitrocefin (Oxoid) with the final concentration of 100 μM was used as a substrate. A test drug (material to be tested: compound having an Example Number shown in Table 2) was added to each well of a 96-well plate, into which nitrocefin was added and mixed. Then, IMP-1 or VIM-2 was added to each well in the final concentration of 1 nM or 1.5 nM, respectively to react the mixture at room temperature for 20 min. In this case, ZnSO4 was added in the final concentration of 100 μM in order to exclude the inhibitory effect by the chelate effect. Enzyme inhibiting activity was determined by measuring the hydrolysis activity of nitrocefin at a wave length of 490 nm with ARVOsx microplate reader (Wallac).

The target in experiment [3] is T2, VIM-2 (UniProt Q5U7L7).
T2 construct: His tag (C); made in house; host or cells: E. coli DH5α
As to the kind of experiment: biochemical. Conditions: nitrocefin 100 μM, VIM-2 1.5 nM, ZnSO4 100 μM, 50 mM HEPES pH 7.5, room temperature 20 min; read-out: IC50 of each inhibitor against VIM-2. As to the method:
as §1, §2

In general, IC50 refers to the concentration that gives 50% inhibition.

The structures appear in SMILES notation.

T1 sequence (P52699 19-246 limits assumed): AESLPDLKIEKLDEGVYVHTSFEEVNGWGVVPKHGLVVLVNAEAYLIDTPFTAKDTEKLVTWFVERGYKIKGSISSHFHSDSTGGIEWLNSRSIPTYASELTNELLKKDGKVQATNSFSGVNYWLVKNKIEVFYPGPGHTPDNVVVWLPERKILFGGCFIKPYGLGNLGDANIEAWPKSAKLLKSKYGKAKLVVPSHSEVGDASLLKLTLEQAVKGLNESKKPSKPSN

In the case of `CO/N=C(\C(=O)N[C@@H]1C(=O)N2C(C(=O)O)=C(CSc3nc(=O)c(=O)[nH]n3C)CS[C@H]12)c1csc(N)n1` [CTRX, ceftriaxone], the “MIC of β-lactam drugs, β-lactam alone” value in experiment [1] was found to be 4096.

In the case of `C[C@@H](O)[C@H]1C(=O)N2C(C(=O)O)=C(S[C@@H]3CN[C@H](CNS(N)(=O)=O)C3)[C@H](C)[C@H]12` [DRPM, doripenem], in experiment [1], the “MIC of β-lactam drugs, β-lactam alone” value worked out at 128.

Turning to `C[C@@H](O)[C@H]1C(=O)N2C(C(=O)O)=C(SCCN=CN)C[C@H]12` [IPM, imipenem], in experiment [1], the “MIC of β-lactam drugs, β-lactam alone” value is reported as 128-256.

With `CC(C)/C(C(=O)O)=C(/C(=O)O)C1CCOCC1` [Example 51, 3-Isopropyl-2-(tetrahydropyran-4-yl)maleic acid disodium], the IC50 in experiment [2] amounted to 1900 nM; in experiment [3] it was 1800 nM.

On to `CC/C(C(=O)O)=C(\SC(C)C)C(=O)O` [Example 66, 3-Ethyl-2-isopropylthiomaleic acid disodium], for which the IC50 came to 1200 nM in experiment [2] and 14000 nM in experiment [3].

For the compound `C[C@@H](O)[C@H]1C(=O)N2C(C(=O)O)=C(S[C@H]3C[C@@H](C(=O)N4CC[C@H](NC(=O)CNC(=N)N)C4)N(C)C3)[C@H](C)[C@H]12` [CS-023, (−)-(4R,5S,6S)-3-[[(3S,5S)-5-[(S)-3-(2-guanidinoacetylamino)pyrrolidin-1-ylcarbonyl]-1-methylpyrrolidin-3-yl]thio]-6-[(R)-1-hydroxyethyl]-4-methyl-7-oxo-azabicyclo[3.2.0]hept-2-ene-2-carboxylic acid], the “MIC of β-lactam drugs, β-lactam alone” value in experiment [1] came to 256.

On to `CC(C)/C(C(=O)O)=C(\Cc1ccc(OCCN)cc1)C(=O)O` [Example 92, 2-[4-(2-aminoethoxy)benzyl]-3-isopropylmaleic acid disodium], for which the values for the IC50 in experiment [2] and in experiment [3] were 980 nM and 300 nM, respectively.

On to `C[C@@H](O)[C@H]1C(=O)N2C(C(=O)[O-])=C(SC3Cn4cnc[n+]4C3)[C@H](C)[C@H]12` (stereo partly shown) [BIPM, biapenem], for which the “MIC of β-lactam drugs, β-lactam alone” value in experiment [1] is 64-128.

Consider `CC(C)(O/N=C(\C(=O)N[C@@H]1C(=O)N2C(C(=O)[O-])=C(C[n+]3ccccc3)CS[C@H]12)c1csc(N)n1)C(=O)O` [CAZ, ceftadizime], for which the “MIC of β-lactam drugs, β-lactam alone” value in experiment [1] turned out to be 2048.

`CC(C)/C(C(=O)O)=C(\Cc1cccnc1)C(=O)O` [Example 54, 2-Isopropyl-3-[(pyridine-3-yl)methyl]maleic acid disodium]: the IC50 in experiment [2] is 2800 nM; in experiment [3], 5300 nM.

Turning to `CC/C(C(=O)O)=C(\Cc1ccccc1)C(=O)O` [Example 11, 2-benzyl-3-ethylmaleic acid disodium], the results for the IC50 in experiment [2] and in experiment [3] were 290 nM and 3000 nM, respectively.

For `CC(C)/C(C(=O)O)=C(/C(=O)O)C1CCCCC1` [Example 43, 2-Cyclohexyl-3-isopropylmaleic acid disodium], the IC50 in experiment [2] is 190 nM; in experiment [3], 160 nM.

With `CC(C)/C(C(=O)O)=C(\Cc1ccc(O)cc1)C(=O)O` [Example 86, 2-(4-Oxidobenzyl)-3-isopropylmaleic acid trisodium], the IC50 is 560 nM in experiment [2] and 1900 nM in experiment [3].

For the compound `CO/N=C(\C(=O)N[C@@H]1C(=O)N2C(C(=O)[O-])=C(C[N+]3(C)CCCC3)CS[C@H]12)c1csc(N)n1` [CFPM, cefepime], in experiment [1], the “MIC of β-lactam drugs, β-lactam alone” value worked out at 2048.

With `CC(C)/C(C(=O)O)=C(\Cc1ccc(C(N)=O)cc1)C(=O)O` [Example 72, 2-(4-Carbamoylbenzyl)-3-isopropylmaleic acid disodium], the IC50 was found to be 1400 nM in experiment [2] and 600 nM in experiment [3].

In the case of `C/C(C(=O)O)=C(/C(=O)O)C(C)C` [Example 22, 2-isopropyl-3-methylmaleic acid disodium], the IC50 in experiment [2] is 2400 nM; in experiment [3], 7300 nM.

The values above are taken from patent publication US9260375B2, “Metallo-β-lactamase inhibitors” (priority 2005, dated 2016).
